Test system: Plasmodium berghei
Experiment: Luciferase/luciferin-expressing antifolate-resistant parasites were used to infect a culture of HepG2 cells that were pre-incubated with compounds. Infected hepatocytes emit light due to the luciferase reaction. Assay results are presented as the percent inhibition of light emission compared to control. […]
Type: functional
Conditions: sporozoite; for IC90: read-out: LUCIFERASE INFECTION ASSAY - IC90
[1] = read-out: LUCIFERASE INFECTION ASSAY - IC50

| SMILES | IC90 | IC50 [1] | further results |
| --- | --- | --- | --- |
| Fc1ccc(N/N=C/Cc2nnnn2-c2ccccc2)cc1 | > 11.1 µM |  | IC50 (HEPG2TOX_HILL_SLOPE 8.77, HEPG2TOX_R_SQUARED 0.625, PBLUC_HILL_SLOPE 4.51, PBLUC_R_SQUARED 0.347, read-out: LUCIFERASE INFECTION ASSAY - IC50): 7.9 µM |
| Cc1cc(NC(=O)COc2ccc(C(C)C)cc2)no1 | > 12 µM | > 12 µM |  |
| O=C(OCC(=O)N1CCN(C(=O)c2ccco2)CC1)c1cccc(NS(=O)(=O)c2ccc(F)c(F)c2)c1 | > 10 µM | > 10 µM |  |
| O=C(O)C1CSC(c2ccccc2)N1 (stereo not drawn) | > 15.8 µM | > 15.8 µM |  |
| O=C(Nc1sc2c(c1CN1CCN(C(=O)c3ccco3)CC1)CCCC2)c1ccccc1F | > 10 µM | > 10 µM |  |
| COc1cccc(-c2cc(=O)n(-c3ccc(F)cc3)[nH]2)c1 | > 11.6 µM | > 11.6 µM |  |
| O=S(=O)(Cc1noc(-c2cccs2)n1)c1ccc(F)cc1 | > 10.2 µM | > 10.2 µM |  |
| Cn1nc(-c2ccc(S(=O)(=O)Oc3cccc([N+](=O)[O-])c3)s2)cc1C(F)(F)F | > 7.61 µM | > 7.61 µM |  |
| Cc1cc2oc(=O)cc(COC(=O)c3cccc(S(=O)(=O)N(Cc4ccccc4)c4cccc(C(F)(F)F)c4)c3)c2cc1C(C)C | > 10 µM | > 10 µM |  |
| COc1cccc(Cn2c3ccc(NC(=O)CC4CCCCC4)cc3c(=O)n2C)c1 | > 8.1 µM | > 8.1 µM |  |
| CC(NC(=O)NC(=O)c1ccccc1)C1CC2CCC1C2 (stereo not drawn) | > 10 µM | > 10 µM |  |
| CCN(CC)c1ccc(/C=C(\C#N)C(=O)Nc2cccc(S(=O)(=O)N3CCCCC3)c2)cc1 | > 10 µM |  | IC50 (HEPG2TOX_HILL_SLOPE 7.51, HEPG2TOX_R_SQUARED 0.401, PBLUC_HILL_SLOPE 2.56, PBLUC_R_SQUARED 0.302, read-out: LUCIFERASE INFECTION ASSAY - IC50): 9.36 µM |
| COc1cc(NS(=O)(=O)c2ccc3ccccc3c2)c(OC)cc1Cl | 4.48 µM | 2.78 µM |  |
| Cc1ccc2nc(NC(=O)COCc3ccccc3)c(C(=O)NC3CCCCC3)n2c1 | > 7.85 µM | > 7.85 µM |  |
| O=S(=O)(N=C1c2ccccc2/C(=N/S(=O)(=O)c2ccc(Cl)cc2)C2C3C=CC(CC3)C12)c1ccc(Cl)cc1 (stereo not drawn) | > 10 µM | 8.44 µM |  |
| COc1ccc(CCN2C(=O)N(C(C)C)C(=O)C23CCN(Cc2cc4ccccc4[nH]2)CC3)cc1 | 6.63 µM |  | IC50 (HEPG2TOX_HILL_SLOPE 8.55, HEPG2TOX_R_SQUARED 0.942, PBLUC_HILL_SLOPE 15.5, PBLUC_R_SQUARED 0.628, read-out: LUCIFERASE INFECTION ASSAY - IC50): 5.75 µM |
| CC(C)[C@H](NC(=O)c1ccc(C(C)(C)C)cc1)C(=O)Nc1nc2ccccc2[nH]1 | > 10 µM | > 10 µM |  |
| CCCn1c(NC(=O)C2CCCN2C(=O)C23CC4CC(CC(C4)C2)C3)nc2ccccc21 (stereo not drawn) | 9.69 µM |  | IC50 (PBLUC_HILL_SLOPE 41.1, PBLUC_R_SQUARED 0.0887, read-out: LUCIFERASE INFECTION ASSAY - IC50): 9.19 µM |
| O=C(Nc1ccc(Cl)cc1)O/N=C(\Nc1ccc(OC(F)(F)F)cc1)c1c(Cl)cccc1Cl | > 6.36 µM |  | IC50 (PBLUC_HILL_SLOPE 0.408, PBLUC_R_SQUARED 0.392, read-out: LUCIFERASE INFECTION ASSAY - IC50): > 6.36 µM |
| Cc1ccc(-c2nc(C(=O)NC3CC3)cc3c2[nH]c2ccccc23)cc1 | 7.38 µM |  | IC50 (HEPG2TOX_HILL_SLOPE 1.45, HEPG2TOX_R_SQUARED 0.961, PBLUC_HILL_SLOPE 3.11, PBLUC_R_SQUARED 0.33, read-out: LUCIFERASE INFECTION ASSAY - IC50): 3.64 µM |
| CCCn1c(NC(=O)CCN(c2ccc(C)cc2)S(=O)(=O)c2ccc(C)cc2)nc2ccccc21 | > 10 µM | > 10 µM |  |
| Fc1ccc(Cc2ccc3ncc(-c4ccncc4)n3n2)cc1 | 9.84 µM |  | IC50 (HEPG2TOX_HILL_SLOPE 3.58, HEPG2TOX_R_SQUARED 0.787, PBLUC_HILL_SLOPE 13.1, PBLUC_R_SQUARED 0.419, read-out: LUCIFERASE INFECTION ASSAY - IC50): 8.32 µM |

| SMILES | IC90 | IC50 [1] | further results |
| --- | --- | --- | --- |
| O=C(NCCN1CCN(c2ncnc3sc4c(c23)CCC4)CC1)c1ccco1 | > 10 µM | > 10 µM |  |
| COc1ccc(Nc2nc(CN3CCN(Cc4ccc(C#N)cc4)CC3)cs2)cc1 | > 10 µM | > 10 µM |  |
| Cc1ccsc1/C=N/Nc1ncc(Cl)cc1Cl | > 10 µM |  | IC50 (FFLUC_HILL_SLOPE 11.7, FFLUC_R_SQUARED 0.18, PBLUC_HILL_SLOPE 22.2, PBLUC_R_SQUARED 0.267, read-out: LUCIFERASE INFECTION ASSAY - IC50): 9.19 µM |
| CSc1nc(N2CCNCC2)c2sc3c(c2n1)CCCC3 | > 10.3 µM |  | IC50 (PBLUC_HILL_SLOPE 1.21, PBLUC_R_SQUARED 0.0625, read-out: LUCIFERASE INFECTION ASSAY - IC50): > 10.3 µM |
| CCOc1ccc2c(c1)C(=O)C(=O)N2Cc1ccc(OC)cc1 | > 10.6 µM |  | IC50 (PBLUC_HILL_SLOPE 0.721, PBLUC_R_SQUARED 0.0969, read-out: LUCIFERASE INFECTION ASSAY - IC50): > 10.6 µM |
| Cc1c(C(=O)Nc2cccc(S(=O)(=O)N(C)C)c2)cnn1-c1ccc(=O)[nH]n1 | > 10 µM | > 10 µM |  |
| CCCCC1(c2ccccc2)NC(=O)N(CC(=O)Nc2ccc(C#N)c(Cl)c2)C1=O (stereo not drawn) | > 10 µM | > 10 µM |  |
| O=C(Cn1cccc(C(F)(F)F)c1=O)NC(Cc1ccccc1)c1ccccc1 (stereo not drawn) | > 10 µM | > 10 µM |  |
| COC(=O)c1c(CSc2nnnn2C)nc2ccccc2c1-c1ccccc1 | > 10 µM | > 10 µM |  |
| c1ccc2c3c(ccc2c1)CCc1ccc2ccccc2c1-3 | > 11.8 µM |  | IC50 (FFLUC_HILL_SLOPE 12.1, FFLUC_R_SQUARED 0.622, read-out: LUCIFERASE INFECTION ASSAY - IC50): > 11.8 µM |
| NC(Cc1ccc(F)cc1)c1csc(NC(=O)c2ccc(F)c(Cl)c2)n1 (stereo not drawn) | 5.68 µM |  | IC50 (PBLUC_HILL_SLOPE 84.1, PBLUC_R_SQUARED 0.0637, read-out: LUCIFERASE INFECTION ASSAY - IC50): 5.54 µM |
| CCc1ccc(NC(=O)c2cc(OC)c(OC)c(OC)c2)cc1[N+](=O)[O-] | > 10 µM |  | IC50 (HEPG2TOX_HILL_SLOPE 7.15, HEPG2TOX_R_SQUARED 0.493, PBLUC_HILL_SLOPE 1.31, PBLUC_R_SQUARED 0.625, read-out: LUCIFERASE INFECTION ASSAY - IC50): 6.01 µM |
| CC(Nc1ccc(OC(F)(F)F)cc1)C(=O)Nc1ccc(C#N)c(Cl)c1 (stereo not drawn) | > 10 µM | 8.9 µM |  |
| CN(Cc1ccc(Cl)cc1Cl)C(=O)NCc1ccc(S(=O)(=O)N2CCCCC2)cc1 | > 10 µM |  | IC50 (PBLUC_HILL_SLOPE 15.3, PBLUC_R_SQUARED 0.472, read-out: LUCIFERASE INFECTION ASSAY - IC50): 9.36 µM |
| C=CCn1c(-c2ccccc2)c(C)sc1=Nc1ccc(Cl)cc1 | > 10 µM |  | IC50 (PBLUC_HILL_SLOPE 11.2, PBLUC_R_SQUARED 0.0711, read-out: LUCIFERASE INFECTION ASSAY - IC50): 9.93 µM |
| COCCNc1ccc([N+](=O)[O-])cc1C(=O)Nc1nc2c(C)cccc2s1 | > 10 µM |  | IC50 (HEPG2TOX_HILL_SLOPE 9.09, HEPG2TOX_R_SQUARED 0.757, PBLUC_HILL_SLOPE 15.6, PBLUC_R_SQUARED 0.06, read-out: LUCIFERASE INFECTION ASSAY - IC50): 9.61 µM |
| CC(C)n1cc(-c2nc(C(=O)NNC(=O)c3ccccc3Cl)cs2)c(=O)n(Cc2ccccc2)c1=O | > 6.3 µM | > 6.3 µM |  |
| Cc1ccc(-c2nn(-c3ccccc3)cc2CN(C)C(=O)CCNC(=O)c2ccco2)cc1C | > 10 µM |  | IC50 (PBLUC_HILL_SLOPE 3, PBLUC_R_SQUARED 0.508, read-out: LUCIFERASE INFECTION ASSAY - IC50): 5.91 µM |
| Cc1onc(-c2c(Cl)cccc2Cl)c1-c1csc(-c2ccccc2Cl)n1 | 6.63 µM |  | IC50 (FFLUC_HILL_SLOPE 1.25, FFLUC_R_SQUARED 0.188, HEPG2TOX_HILL_SLOPE 2.28, HEPG2TOX_R_SQUARED 0.946, PBLUC_HILL_SLOPE 2.98, PBLUC_R_SQUARED 0.455, read-out: LUCIFERASE INFECTION ASSAY - IC50): 3.17 µM |
| Cc1c(C(=O)Nc2ccc(Oc3ccccc3)cc2)[nH]c2c1C(=O)CCC2 | > 10 µM |  | IC50 (PBLUC_HILL_SLOPE 16.6, PBLUC_R_SQUARED 0.701, read-out: LUCIFERASE INFECTION ASSAY - IC50): 9.52 µM |
| Cc1c(-c2ccccc2)sc2[nH]c(CC(N)=O)nc(=O)c12 | 1.59 µM |  | IC50 (HEPG2TOX_HILL_SLOPE 1.61, HEPG2TOX_R_SQUARED 0.893, PBLUC_HILL_SLOPE 16.8, PBLUC_R_SQUARED 0.567, read-out: LUCIFERASE INFECTION ASSAY - IC50): 1.39 µM |
| Cc1ccc(C(C)C)c(OCc2ccc(-c3nnco3)cc2)c1 | > 10 µM | > 10 µM |  |
